Data as given in patent US11760773B2, “Small molecule drug conjugates of gemcitabine monophosphate” (MaveriX Oncology, Inc., priority 2018, dated 2023).
Where two headings read alike, the source gives them in different places.

Columns and labels:
UT-SCC-8 = experiment: Tumor cell proliferation (alamarBlue) cytotoxicity assay, UT-SCC-8; format: cell-based, human; conditions: Homo sapiens; UT-SCC-8, 72 hours treatment
Description: (§1) A tumor cell proliferation assay was used to determine cytotoxicity IC50 values for the phosphate prodrug Compounds 1-9, the parent non-phosphorylated SMDC parent compounds, and the effector (gemcitabine) across eight primary early-passage human head and neck squamous cell carcinoma cell lines including UT-SCC-5, UT-SCC-8, UT-SCC-9, UT-SCC-10, UT-SCC-14, UT-SCC-16A, UT-SCC-16B, and UT-SCC-24A.
(§2) UTSCC cells were seeded at 4000 cells/100 I/well on 96-well black clear-bottom tissue culture plate. Cells were incubated at 37° C. and 5% CO2 overnight to allow them to recover and re-attach. The next day cells were treated with the test compound (0-100 μM) for 72 hours. After treatment, cell proliferation was measured by Fluorescent quantitation of alamarBlue reagent. The alamarBlue assay incorporates a fluorometric/colorimetric growth indicator based on detection of metabolic activity. Specifically, resazurin, the active ingredient of alamarBlue reagent, is blue in color and virtually non-fluorescent. Upon entering cells, resazurin is reduced to resorufin, a compound that is red in color and highly fluorescent.
(§3) Continued cell growth maintains a reduced environment, therefore increasing the overall fluorescence and color of the media surrounding cells. The fluorescence intensity of alamarBlue reagent was directly proportional to cell number. To perform the alamarBlue assay, 10 I of alamarBlue reagent was added to each well and the plate was incubated at 37° C. for an additional 2 hour. Fluorescence intensity was measured at an excitation of 530 nm and an emission of 590 nm using a BioTek Synergy™ 2 microplate reader.
(§4) Cell proliferation assays in triplicate were performed at each concentration. The fluorescent intensity data were analyzed using the computer software, Graphpad Prism. In the absence of the compound, the fluorescent intensity (Ft) in each data set was defined as 100%. In the absence of cells, the fluorescent intensity (Fb) in each data set was defined as 0%. The percent cell in the presence of each compound was calculated according to the following equation: % cell=(F−Fb)/(Ft−Fb), where F=the fluorescent intensity in the presence of the compound, Fb=the fluorescent intensity in the absence of cells, and Ft=the fluorescent intensity in the absence of the compound. The values of % cell versus a series of compound concentrations were then plotted using non-linear regression analysis of Sigmoidal dose-response curve generated with the equation Y=B+(T−B)/1+10^((Log EC50-X)×Hill Slope) where Y=percent cell, B=minimum percent cell, T=maximum percent cell, X=logarithm of compound and Hill Slope=slope factor or Hill coefficient. The IC50 value was determined by the concentration causing a half-maximal percent activity.

UT-SCC-10 = experiment: Tumor cell proliferation (alamarBlue) cytotoxicity assay, UT-SCC-10; format: cell-based, human; conditions: Homo sapiens; UT-SCC-10, 72 hours treatment
Description: as §1, §2, §3, §4

UT-SCC-16A = experiment: Tumor cell proliferation (alamarBlue) cytotoxicity assay, UT-SCC-16A; format: cell-based, human; conditions: Homo sapiens, 72 hours treatment
Description: as §1, §2, §3, §4

UT-SCC-16B = experiment: Tumor cell proliferation (alamarBlue) cytotoxicity assay, UT-SCC-16B; format: cell-based, human; conditions: Homo sapiens, 72 hours treatment
Description: as §1, §2, §3, §4

[1] = Comparative plasma PK of Compound 1 versus Int 1-4 in male CD-1 mice (study b); format: in vivo
Description: Objectives: to compare the plasma pharmacokinetics and stability of Compound 1 with its non-phosphorylated SMDC analog (Int 1-4) and in plasma following a single intravenous infusion administration of Compound 1 at 11.6 mg/kg and 23.2 mg/kg with Int 1-4 (formulation F1 & F2) at 10.0 mg/kg in male CD-1 mice
PK measurements: compare PK parameters C0, CL, Vdss, Cmax, tmax, t1/2, AUC(0-t), AUC(0-inf), MRT(0-t), MRT(0-inf) for Compound 1 and Int 1-4

[2] = Compound 1 and gemcitabine plasma PK in the male cynomolgus monkey (study h); format: in vivo; conditions: plasma
Description: Objectives: to compare the plasma pharmacokinetics and stability of the Compound 1 with Int 1-4 and in plasma following a single intravenous infusion administration of Compound 1 at 5 mg/kg and 10 mg/kg with equimolar gemcitabine at 2.28 mg/kg in male cynomolgous monkeys.
PK measurements: compare PK parameters C0, CL, Vdss, Cmax, tmax, t1/2, AUC(0-t), AUC(0-inf), MRT(0-t), MRT(0-inf) for Compound 1 and Int 1-4 with gemcitabine.

[3] = Liver microsomal stability, human; format: in vitro ADME; conditions: for microsomal CLint: human, liver microsomes
[4] = Metabolic stability in liver hepatocytes, human; format: in vitro ADME
[5] = Metabolic stability in liver hepatocytes, rat; format: in vitro ADME
[6] = Metabolic stability in liver hepatocytes, mouse; format: in vitro ADME
[7] = Metabolic stability in liver hepatocytes, dog; format: in vitro ADME
[8] = Metabolic stability in liver hepatocytes, monkey; format: in vitro ADME
[9] = Comparative dog plasma PK of Int 1-4 versus gemcitabine (study k); format: in vivo; conditions: male beagle dog, after iv gemcitabine 5.29 mg/kg
[10] = male, CD-1, mouse, iv, 10 mg/kg, after iv Int 1-4 10.0 mg/kg, Formulation 1
[11] = male, CD-1, mouse, iv, 10 mg/kg, after iv Int 1-4 10.0 mg/kg, Formulation 2
[12] = male, CD-1, mouse, iv, 11.6 mg/kg, after iv Compound 1 11.6 mg/kg
[13] = male, CD-1, mouse, iv, 23.2 mg/kg, after iv Compound 1 23.2 mg/kg
[14] = negative value indicates compound is stable, read-out: t1/2 mean ± SE
[15] = after iv Int 1-4 10.0 mg/kg, Formulation 1
[16] = after iv Int 1-4 10.0 mg/kg, Formulation 2
[17] = after iv gemcitabine 2.28 mg/kg

## COc1cc(OC)c2oc(COC(=O)Nc3ccn([C@@H]4O[C@H](CO)[C@@H](O)C4(F)F)c(=O)n3)cc2c1 [Int 1-4, (5,7-di(methoxy)benzofuran-2-yl)methyl (1-((2R,4R,5R)-3,3-difluoro-4-hydroxy-5-(hydroxymethyl)tetrahydrofuran-2-yl)-2-oxo-1,2-dihydropyrimidin-4-yl)carbamate]
UT-SCC-8
  IC50: 32 nM
UT-SCC-10
  IC50: 9 nM
UT-SCC-16A
  IC50: 138 nM
UT-SCC-16B
  IC50: 162 nM
[1]; [10]
  AUC(0-t): 3620 ng·h/mL
  C0: 33800 ng/mL
  clearance: 48.3 mL/min/kg
  half-life: 1.18 h
[1]; male, CD-1, mouse, iv, 10 mg/kg, after iv Int 1-4 10.0 mg/kg, Formulation 1, read-out: AUC0-inf
  AUC(0-inf): 3630 ng·h/mL
[1]; male, CD-1, mouse, iv, 10 mg/kg, after iv Int 1-4 10.0 mg/kg, Formulation 1, read-out: MRT0-inf
  MRT inf: 0.756 h
[1]; male, CD-1, mouse, iv, 10 mg/kg, after iv Int 1-4 10.0 mg/kg, Formulation 1, read-out: MRT0-last
  MRT last: 0.723 h
[1]; male, CD-1, mouse, iv, 10 mg/kg, after iv Int 1-4 10.0 mg/kg, Formulation 1, read-out: Vdss
  Vd: 2.01 L/kg
[1]; [11]
  AUC(0-t): 4210 ng·h/mL
  C0: 43000 ng/mL
  clearance: 38.9 mL/min/kg
  half-life: 1.82 h
[1]; male, CD-1, mouse, iv, 10 mg/kg, after iv Int 1-4 10.0 mg/kg, Formulation 2, read-out: AUC0-inf
  AUC(0-inf): 4290 ng·h/mL
[1]; male, CD-1, mouse, iv, 10 mg/kg, after iv Int 1-4 10.0 mg/kg, Formulation 2, read-out: MRT0-inf
  MRT inf: 0.984 h
[1]; male, CD-1, mouse, iv, 10 mg/kg, after iv Int 1-4 10.0 mg/kg, Formulation 2, read-out: MRT0-last
  MRT last: 0.797 h
[1]; male, CD-1, mouse, iv, 10 mg/kg, after iv Int 1-4 10.0 mg/kg, Formulation 2, read-out: Vdss
  Vd: 2.3 L/kg
[1]; [12]
  AUC(0-t): 2570 ng·h/mL
  half-life: 0.974 h
[1]; male, CD-1, mouse, iv, 11.6 mg/kg, after iv Compound 1 11.6 mg/kg, read-out: AUC0-inf
  AUC(0-inf): 2610 ng·h/mL
[1]; male, CD-1, mouse, iv, 11.6 mg/kg, after iv Compound 1 11.6 mg/kg, read-out: Cmax
  Cmax: 20000 ng/mL
[1]; male, CD-1, mouse, iv, 11.6 mg/kg, after iv Compound 1 11.6 mg/kg, read-out: MRT0-inf
  MRT inf: 0.673 h
[1]; male, CD-1, mouse, iv, 11.6 mg/kg, after iv Compound 1 11.6 mg/kg, read-out: MRT0-last
  MRT last: 0.553 h
[1]; male, CD-1, mouse, iv, 11.6 mg/kg, after iv Compound 1 11.6 mg/kg, read-out: Tmax
  Tmax: 0.025 h
[1]; [13]
  AUC(0-t): 6370 ng·h/mL
  half-life: 0.93 h
[1]; male, CD-1, mouse, iv, 23.2 mg/kg, after iv Compound 1 23.2 mg/kg, read-out: AUC0-inf
  AUC(0-inf): 6380 ng·h/mL
[1]; male, CD-1, mouse, iv, 23.2 mg/kg, after iv Compound 1 23.2 mg/kg, read-out: Cmax
  Cmax: 29900 ng/mL
[1]; male, CD-1, mouse, iv, 23.2 mg/kg, after iv Compound 1 23.2 mg/kg, read-out: MRT0-inf
  MRT inf: 0.793 h
[1]; male, CD-1, mouse, iv, 23.2 mg/kg, after iv Compound 1 23.2 mg/kg, read-out: MRT0-last
  MRT last: 0.778 h
[1]; male, CD-1, mouse, iv, 23.2 mg/kg, after iv Compound 1 23.2 mg/kg, read-out: Tmax
  Tmax: 0.025 h
[2]; after iv Compound 1 5 mg/kg
  AUC(0-t): 4380 ng·h/mL
  half-life: 0.76 h
[2]; after iv Compound 1 5 mg/kg, read-out: AUC0-inf
  AUC(0-inf): 4400 ng·h/mL
[2]; after iv Compound 1 5 mg/kg, read-out: MRT0-inf
  MRT inf: 0.37 h
[2]; after iv Compound 1 5 mg/kg, read-out: MRT0-last
  MRT last: 0.36 h
[3]; human liver microsomes
  half-life: 30.8 h
[3]; human liver microsomes, 0 min
  Compound Remaining (% of 0 min) 0 min: 100 % of 0 min
[3]; human liver microsomes, 5 min
  Compound Remaining (% of 0 min) 5 min: 111 % of 0 min
[3]; human liver microsomes, 15 min
  Compound Remaining (% of 0 min) 15 min: 94.0 % of 0 min
[3]; human liver microsomes, 30 min
  Compound Remaining (% of 0 min) 30 min: 107 % of 0 min
[3]; human liver microsomes, 45 min
  Compound Remaining (% of 0 min) 45 min: 99.9 % of 0 min
[3]; human liver microsomes, control
  Compound Remaining (% of 0 min) control: 102 % of 0 min
[3]
  microsomal CLint: 0.747 µL/min/mg
[3]; text value
  microsomal CLint: 0.75 µL/min/mg
[4]
  Slope Mean ± SE: −0.003031 ± 0.001361
[4]; read-out: t1/2 mean ± SE
  half-life: 3.81 ± 1.71 h
[5]
  Slope Mean ± SE: −0.007701 ± 0.001794
[5]; [14]
  half-life: 1.5 ± 0.35 h
[6]
  Slope Mean ± SE: −0.006655 ± 0.00081
[6]; read-out: t1/2 mean ± SE
  half-life: 1.73 ± 0.212 h
[7]
  Slope Mean ± SE: −0.00433 ± 0.001287
[7]; [14]
  half-life: 2.67 ± 0.793 h
[8]
  Slope Mean ± SE: −0.005018 ± 0.001425
[8]; [14]
  half-life: 2.3 ± 0.653 h

## O=c1ccn(C2OC(CO)C(O)C2(F)F)c(=O)[nH]1 (centres unmarked) [dFdU]
[1]; after iv Compound 1 11.6 mg/kg
  AUC0-last: 967 ng·h/mL
  AUC(0-inf): 786 ng·h/mL
  Cmax: 220 ng/mL
  MRT0-inf: 3.81 h
  MRT0-last: 3.70 h
  Tmax: 3.25 h
  t1/2: 2.38 h
[1]; after iv Compound 1 23.2 mg/kg
  AUC0-last: 1960 ng·h/mL
  AUC(0-inf): 1830 ng·h/mL
  Cmax: 378 ng/mL
  MRT0-inf: 4.48 h
  MRT0-last: 3.65 h
  Tmax: 4.00 h
  t1/2: 2.86 h
[1]; [15]
  AUC0-last: 983 ng·h/mL
  AUC(0-inf): 1124 ng·h/mL
  Cmax: 213 ng/mL
  MRT0-inf: 4.67 h
  MRT0-last: 3.59 h
  Tmax: 4.00 h
  t1/2: 3.06 h
[1]; [16]
  AUC0-last: 1106 ng·h/mL
  AUC(0-inf): 1625 ng·h/mL
  Cmax: 236 ng/mL
  MRT0-inf: 5.89 h
  MRT0-last: 3.95 h
  Tmax: 4.00 h
  t1/2: 4.15 h
[2]; after iv Compound 1 5 mg/kg
  AUC0-last: 3397 ng·h/mL
  AUC(0-inf): 8767 ng·h/mL
  Cmax: 321 ng/mL
  MRT0-inf: 34.42 h
  MRT0-last: 8.98 h
  Tmax: 0.39 h
  t1/2: 24.00 h
[2]; [17]
  AUC0-last: 12467 ng·h/mL
  AUC(0-inf): 17600 ng·h/mL
  Cmax: 2153 ng/mL
  MRT0-inf: 18.06 h
  MRT0-last: 8.21 h
  Tmax: 0.04 h
  t1/2: 12.90 h
[9]
  t1/2: 8.55 h
